Experimental data published in patent US9517988B2 (Sichuan Haisco Pharmaceutical Co., Ltd., priority 2013, dated 2016).
Counter-ions that a name gives are not always drawn.

What was measured:
[1] = Righting reflex experiment on mice with prodrugs; assay type: in vivo; details: ICR, mouse, in vivo, mice; for MTD: prodrugs; for LD50: intravenous injection, prodrugs in physiological saline
Method: (§1) After adapting to the laboratory environment, the SPF-grade ICR mice were fasted for 12 hours.

ICR mice [2] = assay: Righting reflex experiment on mice with prodrugs; assay type: in vivo; details: for ED50: Mus musculus; for SI: safety index, LD5/ED95, mice; for TI: therapeutic index, LD50/ED50, mice
Method: as §1

[3] = Righting reflex experiment on mice; details: both, ICR, mouse, in vivo; for LD50: iv; for MTD: intravenous
Method: (§2) LD5 (5% lethal dose): dose required to cause 5% of mice to die in a test.
(§3) If a normal animal was able to immediately turn its body to normal upright position after being pushed over or made lying on its back, such a reflex was determined as the righting reflex. Otherwise, loss of the righting reflex and the time of loss were recorded, and a reflex recovery time was recorded when the animal restored the righting reflex. The period from finishing of drug administration until loss of the righting reflex was recorded as the anesthesia induction time, and the period from loss of the righting reflex until recovery of the righting reflex was recorded as the anesthesia maintenance time.
(§4) TI (therapeutic index, i.e. LD50/ED50), SI (safety index, i.e. LD5/ED95).
(§5) MTD (maximum tolerated dose): the maximum dose able to cause 100% to loss the righting index without death.
(§6) Indicators such as median effective dose (ED50), median lethal dose (LD50), therapeutic index (TI, i.e. LD50/ED50), safety index (SI, i.e. LD5/ED95), anesthesia induction time, anesthesia maintenance time, and maximum tolerated dose (MTD) were used to evaluate the effect and safety of anesthesia. […] After adapting to the laboratory environment, laboratory animals were fasted for 12 hours. On the next day, administration was carried out at 10 mg/kg body weight. Upon intravenous injection, the time of loss of the righting reflex was recorded. The period from finishing of drug administration until loss of the righting reflex was recorded as the anesthesia induction time, and the period from loss of the righting reflex until recovery of the righting reflex was recorded as the anesthesia maintenance time. The anesthesia induction time and the anesthesia maintenance time were used to indicate how strong an anesthetic effect was. Meanwhile, the dose required to cause a 7-min anesthesia (HD7) was measured and used to evaluate relative efficacy.

ICR mice [4] = assay: Righting reflex experiment on mice; details: for ED50: Mus musculus, iv; for Anesthesia induction time / Anesthesia maintenance time: intravenous injection; for Anesthesia induction time: end of administration until loss of righting reflex; for Anesthesia maintenance time: loss until recovery of righting reflex; for MTD: maximum dose causing 100% loss of righting reflex without death; for SI: safety index, LD5/ED95, mice; for TI: therapeutic index, LD50/ED50, mice
Method: as §2, §3, §4, §5, §6

[5] = mice, intravenous injection, prodrugs formulated with physiological saline, read-out: ED50
[6] = mice, intravenous injection, prodrugs

| Structure (SMILES) | MTD ([1]; both sexes, intravenous) [mg/kg] | LD50 ([1]; both sexes) [mg/kg] | ED50 (ICR mice [2]; [5]) [mg/kg] | Anesthesia induction time (ICR mice [2]; [6]) [s] | Anesthesia maintenance time (ICR mice [2]; [6]) [s] | SI (ICR mice [2]; prodrugs) | TI (ICR mice [2]; prodrugs) | LD50 [3] [mg/kg] | ED50 (ICR mice [4]) [mg/kg] | Anesthesia induction time (ICR mice [4]; mice) [s] | Anesthesia maintenance time (ICR mice [4]; mice) [s] | SI (ICR mice [4]) | TI (ICR mice [4]) | further results |
| --- | --- | --- | --- | --- | --- | --- | --- | --- | --- | --- | --- | --- | --- | --- |
| CC(C)c1cccc([C@H](C)C2CC2)c1OCOC(=O)[C@@H](N)Cc1ccccc1 [Compound 62, [2-[(1R)-1-cyclopropylethyl]-6-isopropyl-phenoxy]methyl(2S)-2-amino-3-phenylpropanoate trifluoroacetate] | 30 | 45.6 | 7.7 | <15.0 | 696.9 | 1.6 | 5.9 | – | – | – | – | – | – | ED50 and efficacy compared with propofol (ICR mice [2]; mice, prodrugs): smaller ED50 value and higher efficacy than propofol |
| CC(C)c1cccc([C@H](C)C2CC2)c1OCOP(=O)(OCOC(=O)C(C)(C)C)OCOC(=O)C(C)(C)C [Compound 35, [[2-[(1R)-1-cyclopropylethyl]-6-isopropyl-phenoxy]methoxy-(2,2-dimethylpropanoyloxymethoxy)phosphoryl]oxymethyl 2,2-dimethylpropanoate] | – | 200 | – | <15.0 | 1915.5 | 4.9 | 5.1 | – | – | – | – | – | – | MTD ([1]; both sexes): 200 mg/kg; ED50 (ICR mice [2]; iv): 39.3 mg/kg |
| CC[C@@H](C)c1cccc([C@H](C)C2CC2)c1OCOP(=O)([O-])[O-].[Na+].[Na+] [Compound 78] | – | – | 15.9 | 65.2 | 2634.6 | 2.9 | 4.0 | – | – | – | – | – | – | MTD ([1]; both, intravenous): 40 mg/kg; LD50 ([1]; both): 63.7 mg/kg |
| C[C@H](c1cccc([C@@H](C)C2CC2)c1O)C1CC1 [Compound 20, 2,6-bis[(1S)-1-cyclopropylethyl]phenol] | – | – | – | – | – | – | – | 150 | 15.7 | <15.0 | 1207.7 | 4.4 | 9.6 | MTD (ICR mice [4]; mice): 90.0 mg/kg |
| C[C@H](c1cccc([C@@H](C)C2CC2)c1OCOP(=O)(O)O)C1CC1 [Compound 77, sodium (2,6-bis((S)-1-cyclopropylethyl)phenoxy)methyl phosphate] | 160 | 274 | 94.7 | 175.4 | 1859.1 | 1.7 | 2.9 | – | – | – | – | – | – | – |
| CC(C)c1cccc([C@H](C)C2CCC2)c1O [Compound 14, 2-[(1R)-1-cyclobutylethyl]-6-isopropyl-phenol] | – | – | – | – | – | – | – | 38.2 | 6.6 | <15.0 | 2235.6 | 3.7 | 5.8 | MTD (ICR mice [4]; mice): 35.0 mg/kg |
| CC(C)c1cccc(C(C2CC2)C2CC2)c1O [Compound 11, 2-(dicyclopropylmethyl)-6-isopropyl-phenol] | – | – | – | – | – | – | – | 100 | 30.1 | <15.0 | 1494.7 | 2.5 | 3.3 | MTD [3]: 80 mg/kg |
| C[C@@H](c1cccc([C@H](C)C2CC2)c1OCOP(=O)(O)O)C1CC1 [Compound 75, sodium (2,6-bis((R)-1-cyclopropylethyl)phenoxy)methyl phosphate] | 30 | 42.4 | 11.7 | 129.2 | 2070.4 | 2.3 | 3.6 | – | – | – | – | – | – | – |
| CC(C)c1cccc([C@H](C)C2CCC2)c1OCOP(=O)([O-])[O-].[Na+].[Na+] [Compound 74] | – | – | 48.3 | 96.5 | 2378.3 | 2.5 | 4.0 | – | – | – | – | – | – | MTD ([1]; both, intravenous): 120 mg/kg; LD50 ([1]; both): 192 mg/kg |
| CC(c1cccc(C2CC2)c1O)C1CC1 (stereo not shown) [Compound 5, 2-cyclopropyl-6-(1-cyclopropylethyl)phenol] | – | – | – | – | – | – | – | 80 | 14.5 | <15.0 | 1669.5 | 4.0 | 5.5 | MTD [3]: 60 mg/kg |
| CC(C)c1cccc(C(C)C2CCC2)c1O (stereo not shown) [Compound 7, 2-(1-cyclobutylethyl)-6-isopropylphenol] | – | – | – | – | – | – | – | 40 | 7.1 | <15.0 | 958.0 | 2.7 | 5.7 | MTD (ICR mice [4]; mice): 30.0 mg/kg |
| CC(C)C[C@H](N)C(=O)OCOc1c(C(C)C)cccc1[C@H](C)C1CC1 [Compound 60, [2-[(1R)-1-cyclopropylethyl]-6-isopropyl-phenoxy]methyl(2S)-2-amino-4-methyl-pentanoate trifluoroacetate] | 50 | 79.6 | 13.8 | 6.0 | 1473.0 | 3.1 | 5.8 | – | – | – | – | – | – | – |
| CC(C)c1cccc([C@H](C)C2CC2)c1OCOP(=O)([O-])[O-].[K+].[K+] [Compound 45] | – | – | – | – | – | – | – | – | – | – | – | – | – | MTD ([1]; both, intravenous): 50 mg/kg; LD50 ([1]; both): 72.6 mg/kg |
| CC(c1cccc(C2(C)CC2)c1O)C1CC1 (stereo not shown) [Compound 6, 2-(1-cyclopropylethyl)-6-(1-methylcyclopropyl)phenol] | – | – | – | – | – | – | – | 40 | 10.5 | <15.0 | 554.9 | 2.7 | 3.8 | MTD [3]: 30 mg/kg |
| CC[C@H](C)c1cccc([C@H](C)C2CC2)c1OCOP(=O)([O-])[O-].[Na+].[Na+] [Compound 79] | – | – | 24.3 | 72.5 | 2252.1 | 2.1 | 3.8 | – | – | – | – | – | – | MTD ([1]; both, intravenous): 60 mg/kg; LD50 ([1]; both): 91.8 mg/kg |
| CC(C)c1cccc([C@@H](C)C2CCC2)c1O [Compound 15, 2-[(1S)-1-cyclobutylethyl]-6-isopropyl-phenol] | – | – | – | – | – | – | – | 107 | 46.1 | <15.0 | 485.8 | 1.1 | 2.3 | MTD (ICR mice [4]; mice): 70.0 mg/kg |
| CC(C)c1cccc([C@H](C)C2CC2)c1OCOC(=O)C(NC(=O)OC(C)(C)C)C(C)C (stereo in doubt) [Compound 57, [2-[(1R)-1-cyclopropylethyl]-6-isopropyl-phenoxy]methyl(2R)-2-(tertbutoxycarbonylamino)-3-methyl-butanoate] | 80 | 120 | 36.7 | 135.8 | 1931.2 | 1.3 | 3.3 | – | – | – | – | – | – | – |
| CCC(C)c1cccc(C(C)C2CC2)c1O (stereo not shown) [Compound 4, 2-sec-butyl-6-(1-cyclopropylethyl)phenol] | – | – | – | – | – | – | – | 38.1 | 4.5 | <15.0 | 901.7 | 2.6 | 8.4 | MTD [3]: 25 mg/kg; HD7 (ICR mice [4]; mice, dose required to cause a 7-min anesthesia): 4.0 mg/kg |
| CC(=O)Oc1ccccc1C(=O)OCOc1c(C(C)C)cccc1[C@H](C)C1CC1 [Compound 38, [2-[(1R)-1-cyclopropylethyl]-6-isopropyl-phenoxy]methyl 2-acetoxybenzoate] | 50 | 80 | 26.1 | 141.0 | 478.9 | 1.3 | 3.1 | – | – | – | – | – | – | – |
| CC(C)c1cccc([C@H](C)C2CC2)c1OCOC(=O)c1cccnc1 [Compound 51, [2-[(1R)-1-cyclopropylethyl]-6-isopropyl-phenoxy]methylpyridine-3-carboxylate] | 40 | 80 | 28.3 | 159.0 | 1159.9 | 1.2 | 2.8 | – | – | – | – | – | – | – |
| C[C@H](c1cccc([C@H](C)C2CC2)c1OCOP(=O)(O)O)C1CC1 [Compound 76, sodium (2-((R)-1-cyclopropylethyl)-6-((S)-1-cyclopropylethyl)phenoxy)methyl phosphate] | 80 | 143 | 35.8 | 111.8 | 1992.8 | 2.5 | 4.0 | – | – | – | – | – | – | – |
| CC(C)c1cccc([C@@H](C)C2CC2)c1OCOP(=O)([O-])[O-].[Na+].[Na+] [Compound 65] | 200 | 370 | 82.7 | 82.5 | 3278.0 | 2.9 | 4.5 | – | – | – | – | – | – | – |
